Experimental data as given in ChEMBL document CHEMBL1130382, “Inhibition of thyroid hormone uptake by calcium antagonists of the dihydropyridine class” (J Med Chem, 1997).

Experiments:
[1] = Partition coefficient (logP); settings: octanol/water
HepG2 [2] = assay: Inhibitory effect on L-triiodothyronine (L-T3) uptake by human HepG2 hepatoma cells at an application dose 10E-5 M; assay type: functional
HepG2 [3] = assay: Compound tested for inhibitory effect on L-triiodothyronine (L-T3) uptake by human HepG2 hepatoma cells at an application dose 10E-5 (M); assay type: functional

CCOC(=O)C1=C(C)NC(C)=C(C(=O)OCC)C1c1cccc(O)c1
logP [1]: 4.03
I (HepG2 [2]): 21.6%

CCOC(=O)C1=C(C)N=C(C)/C(=C(/O)OCC)C1c1cccc(OC)c1 (stereo not given)
logP [1]: 3.22
I (HepG2 [2]): 17.5%

CCOC(=O)C1=C(C)N=C(C)/C(=C(/O)OCC)C1c1cccc(I)c1 (stereo not given)
logP [1]: 4.48
I (HepG2 [3]): 33.2%

CC1=C(C#N)C(c2cccc([N+](=O)[O-])c2)C(C#N)=C(C)N1
logP [1]: 1.45
I (HepG2 [2]): 53.8%

CCO/C(O)=C1\C(C)=NC(C)=C(C(=O)OC)C1c1cccc(C(F)(F)F)c1 (stereo not given)
logP [1]: 3.9
I (HepG2 [2]): 19.6%

CCOC(=O)c1c(C)nc(C)c(C(=O)OCC)c1-c1cccc([N+](=O)[O-])c1
logP [1]: 3.1
I (HepG2 [2]): 28.4%

CCOC(=O)C1=C(C)N=C(C)/C(=C(/O)OCC)C1c1cccc(C)c1 (stereo not given)
logP [1]: 3.76
I (HepG2 [2]): 29.7%

CCO/C(O)=C1\C(C)=NC(C)=C(C(=O)OC)C1c1ccccc1C(F)(F)F (stereo not given)
logP [1]: 3.82
I (HepG2 [2]): 23.1%

CCOC(=O)C1=C(C)N=C(C)/C(=C(/O)OCC)C1c1ccc(I)cc1 (stereo not given)
logP [1]: 4.7
I (HepG2 [2]): 26.8%

CCO/C(O)=C1\C(C)=NC(C)=C(C(=O)OC)C1c1ccccc1[N+](=O)[O-] (stereo not given)
logP [1]: 2.51
I (HepG2 [2]): 41.4%

CCO/C(O)=C1\C(C)=NC(C)=C(C(=O)OC)C1c1ccc([N+](=O)[O-])cc1 (stereo not given)
logP [1]: 3.6
I (HepG2 [2]): 85.8%

c1ccc(Nc2ccccc2)cc1 [DIPHENYLAMINE]
logP [1]: 2.94
I (HepG2 [2]): 20.9%

c1ccc(Oc2ccccc2)cc1 [DIPHENYLETHER]
logP [1]: 3.83
I (HepG2 [2]): 22%

O=C(O)c1ccccc1Nc1ccccc1 [FENAMIC ACID]
logP [1]: 3.08
I (HepG2 [2]): 20.5%

COC(=O)C1=C(C)NC(C)=C(C(=O)OC)C1c1ccccc1[N+](=O)[O-] [NIFEDIPINE]
I (HepG2 [2]): 80.5%

CCOC(=O)C1=C(C)NC(C)=C(C(=O)OC)C1c1cccc([N+](=O)[O-])c1 (stereo not given) [NITRENDIPINE]
I (HepG2 [2]): 81.8%
